Source: PMC8541546, “Identification of HLA-A2-Restricted Mutant Epitopes from Neoantigens of Esophageal Squamous Cell Carcinoma” (Vaccines, 2021)

Assays:
[1] = system: peptide-pulsed T2A2 cells; assay: Cytotoxicity assay of peptide-induced T cells from donor PBMCs; format: cell-based, human; conditions: donors B–F; E/T 12.5:1, 25:1, 50:1; T2A2 loaded with 50 μg/mL peptide
Procedure: DCs involve and play an important role in initiating CD8^+ T cell response. Consequently, ten HLA-A2^+ healthy donors’ PBMCs were isolated, autologous DCs were generated, and CTLs were induced according to the procedure described previously. In brief, PBMCs were seeded at a density of 5 × 10^6 cells/well in a 6-well plate, and after 3 h, the non-adherent cells were removed and cryopreserved for future incubation with mature autologous DCs. Differentiation of the adherent cells into dendritic cells was induced by GM-CSF (100 ng/mL, #300-03, PeproTech, Rocky Hill, NJ, USA) and IL-4 (100 ng/mL; #200-04, PeproTech, USA), with replenishment every 2 days. On day 5, maturation of DCs was induced using 100 ng/mL LPS (#L4516, Sigma-Aldrich, St. Louis, MO, USA), and maturation was checked on day 8 by flow cytometry (BD FACSCelesta™) using markers for anti-human HLA-DR, anti-human CD80, and anti-human CD86. Then, mature DCs (1 × 10^5) were pulsed with each 10 μg /mL individual peptide or no peptides (control) for 2 h at 37 °C. Next, peptide-pulsed DCs were used to prime the previously cryopreserved autologous peripheral blood lymphocytes (PBLs) at a DC/PBL ratio of 1:10 using complete RPMI-1640 media supplemented with 100 IU/mL rhIL-2 (#200-02, PeproTech, USA) and 10 ng/mL rhIL-7 (#200-07, PeproTech, USA). Half of the feeding medium was replenished every 2 days. After 7 days, PBLs were restimulated with freshly pulsed autologous DCs every 7 days.
(§1) The cytotoxicity of peptide-specific T cells stimulated by mutant peptides was tested by using Cell Trace Far Red (Thermo Scientific, USA). Transfected cells were suspended in PBS (1 × 10^6 cells/mL) and labelled with Cell Trace Far Red as follows: Control target cells and test target cells were marked by 50 μM and 1 mM Cell Trace Far Red, respectively, at 37 °C for 20 min, protected from light. After incubation, target cells were washed with complete media at 37 °C for 5 min. […] Subsequently, test target cells were mixed with control target cells in a tube, washed once, and analyzed by flow cytometry. Specific lysis (%) = (numbers of control target cells—numbers of test target cells)/numbers of control target cells × 100% [28, 29], where, for tumor cells, the control target cells refer to KYSE140-WT cells marked with 50 μM Cell Trace Far Red, and the test target cell refers to KYSE140-WT or KYSE140-MUT cells marked with 1 mM Cell Trace Far Red, respectively (peptide-specific T cells generated from donors G–K’s PBMCs in vitro or generated from spleen lymphocytes of HLA-A2.1/K^b Tg mice in vivo). Additionally, for T2A2 target cells, T2A2 cells unpulsed and marked with 50 μM Cell Trace Far Red were used as the control target cells, while T2A2 cells loaded with MUT peptides or the corresponding WT peptides (50 μg/mL) or T2A2 cells only were marked with 1 mM Cell Trace Far Red and were used as test target cells (peptide-specific T cells stimulated from donors B–F’s PBMCs).

KYSE140-MUT cells [2] = assay: Intracellular cytokine staining (IFN-γ) of CTLs from immunized Tg mice; format: in vivo, HLA-A2.1/K^b Tg mice; conditions: 100 μg/mouse s.c. with CpG ODN 1826 once a week for three weeks; spleen lymphocytes re-stimulated with MUT peptide; KYSE140-MUT target cells; n = 5 per group
Procedure: (§2) To investigate whether neoepitopes could induce a peptide-specific T cell response in vivo, HLA-A2.1/K^b Tg mice were used and immunized according to the procedure de-scribed previously. In brief, mutant peptides or WH-mutant peptides (100 μg per mouse) with CpG-ODN 1826 (30 μg per mouse) were injected s.c. in the back of HLA-A2.1/K^b Tg mice (five mice per group, randomly grouped) once a week for three weeks. The normal saline (NS) group was immunized s.c. only with CpG ODN 1826 (30 μg/mouse) once a week for three weeks. Five days after the last injection, spleen lymphocytes were isolated and cultured at the concentration of 5 × 10^6 cells/mL in RPMI 1640 medium. These cells were induced by the same mutant peptides (10 μg/mL) that were used for in vivo stimulation and mIL-2 (30 U/mL) for a week. Intracellular cytokine staining assay (ICS) and cytotoxic assay (E: T ratios = 20:1, 40:1, 80:1) were performed after a week induced in vitro [22].
To test the MUT peptides stimulation of CTL response in vivo, peptide-specific T cells induced from Tg mice were co-cultured with tumor cell lines transfected with WT or MUT minigenes, as described in the in vitro assay. […] Intracellular cytokines were marked by anti-mouse IFN-γ or anti-mouse granzyme B, respectively, and analyzed by flow cytometry (BD FACSCelesta™, USA).

[3] = molecular target: T1, peptide/HLA-A*0201 complex (Homo sapiens, UniProt P04439, D140Y/D185E/D98H/E176V/E277Q/G131W/G231S/I119V/I121R/I166T/I218V/L300P/L318F/N151K/N90K/P208A/P217A/Q86G/Q94H/R138H/R169H/T345S); assay: peptide/MHC complex stabilization assay on T2A2 cells; format: binding; conditions: T2A2 cells pulsed with 50 μg/mL peptide and 3 μg/mL β2-M 18 h, BFA 1 h; MFI at 0, 2, 4, 6 h; time of half losing MFI of 0 h
T1 construct: T2A2 cells (TAP-deficient HLA-A2 molecules overexpressing, cultured in IMDM medium); β2-M from Merck; host or cells: T2A2 cells
Procedure: For the stabilization test, T2A2 cells were pulsed with 50 μg/mL mutant peptide and 3 μg/mL β2-Microglobulin (β2-M, Merck, Kenilworth, NJ, USA) in IMDM (serum-free) medium for 18 h. After three times washing, free peptides were removed and brefeldin A (BFA, 10 μg/mL, BD Bioscience, San Diego, CA, USA) was added. BFA was removed after 1 h impeding, and the cells were incubated for additional time. Finally, T2A2 was marked with anti-human HLA-A2 PE-Cyanine7 for 30 min, then analyzed by FACS Calibur (BD Bioscience, USA). MFI of 0 h was set as 100%, and the time of half losing MFI of 0 h defined the dissociation complex 50 (DC50). DC50 was computed as follows: (MFI of 0 h-MFI of (2, 4, or 6 h))/MFI of 0 h × 100%.

KYSE140-MUT cells [4] = assay: Cytotoxicity assay (Cell Trace Far Red) of CTLs from immunized Tg mice; format: in vivo, HLA-A2.1/K^b Tg mice; conditions: KYSE140-MUT group, E/T of 80:1, 4 h
Procedure: as §2
as §1, with “Additionally, for T2A2 target cells, T2A2 cells unpulsed and marked with 50 μM Cell Trace Far Red were used as the control target cells, while T2A2 cells loaded with MUT peptides or the corresponding WT peptides (50 μg/mL) or T2A2 cells only were marked with 1 mM Cell Trace Far Red and were used as test target cells (peptide-specific T cells stimulated from donors B–F’s PBMCs).” left out

Sequence: ILWRQDINL [NFE2L2-D13N]
- lysis cytotoxicity of MUT peptide-induced T cells on T2A2 cells [1]: could efficiently lyse corresponding MUT peptide-pulsing T2A2 cells
- IFN-γ secretion of CTLs (IFN-γ+ CD8+ T cells) (KYSE140-MUT cells [2]): 1.5%
- DC50 (dissociation complex 50) [3]: >6 h
- lysis rate (specific lysis) (KYSE140-MUT cells [4]): 69.5%

Sequence: LLGPNSFEV [TP53-R267P]
- lysis cytotoxicity of MUT peptide-induced T cells on T2A2 cells [1]: could efficiently lyse corresponding MUT peptide-pulsing T2A2 cells
- IFN-γ secretion of CTLs (IFN-γ+ CD8+ T cells) (KYSE140-MUT cells [2]): 1.1%
- DC50 (dissociation complex 50) [3]: >6 h
- lysis rate (specific lysis) (KYSE140-MUT cells [4]): 71.5%

Sequence: QVTDFLAPL [PCLO-E4090Q]
- lysis cytotoxicity of MUT peptide-induced T cells on T2A2 cells [1]: could efficiently lyse corresponding MUT peptide-pulsing T2A2 cells
- DC50 (dissociation complex 50) [3]: >4 h
- lysis rate (specific lysis) (KYSE140-MUT cells [4]): 76.7%
